According to patent US20160038505A1, “METHODS AND COMPOSITIONS FOR TREATING IMPULSE CONTROL DISORDER, ANXIETY-RELATED DISORDERS, VIOLENCE AND/OR ANGER, OR REGULATING FOOD INTAKE” (priority 2014, published 2016):

What was measured:
Format in all cases: in vivo, human
[1] = Serum pharmacokinetics in opioid-dependent patients (Phase IB); parameters: unit not given here
Experimental: (§1) Three cohorts of nine (9) subjects (6 administered noribogaine and 3 administered placebo in each cohort) were evaluated for tolerability, pharmacokinetics, and efficacy. Cohort 1 received a single dose of 60 mg noribogaine or placebo. Cohort 2 received a single dose of 120 mg noribogaine or placebo. Cohort 3 received a single dose of 180 mg noribogaine or placebo.
FIG. 4 indicates the serum noribogaine concentration over time for each cohort.

[2] = test system: opioid-dependent participants; test: Treatment emergent adverse events in opioid-dependent participants (Phase IB)
Experimental: This example is to illustrate that noribogaine can be administered at a therapeutic dosing while maintaining an acceptable QT interval.
See PCT Application No. PCT/US2013/069235, filed Nov. 8, 2013, which is incorporated herein by reference in its entirety.
as §1

[3] = test system: healthy, drug-free male volunteers; test: Pupillometry (pupillary miosis) in healthy volunteers; settings: 3-60 mg single oral dose, vs placebo p>0.9
Experimental: Pulse oximetry and capnography data were collected continuously using a GE Carescape B650 monitoring system from 2 hours prior to dosing and until six hours after dosing, and thereafter at 12, 24, 48 and 72 hours post-dosing. […] Pupillary miosis was assessed by pupillometry.

CC[C@H]1CC2C[C@H]3c4[nH]c5ccc(O)cc5c4CCN(C2)C13 [noribogaine]
Serum noribogaine concentration ([1]; 60 mg, time 0): 0 | Serum noribogaine concentration ([1]; 60 mg, time 0.5): 3.75 | Serum noribogaine concentration ([1]; 60 mg, time 1): 17.86 | Serum noribogaine concentration ([1]; 60 mg, time 1.5): 42.54 | Serum noribogaine concentration ([1]; 60 mg, time 2): 53.01 | Serum noribogaine concentration ([1]; 60 mg, time 2.5): 63.71 | Serum noribogaine concentration ([1]; 60 mg, time 3): 72.95 | Serum noribogaine concentration ([1]; 60 mg, time 3.5): 71.43 | Serum noribogaine concentration ([1]; 60 mg, time 4): 72.89 | Serum noribogaine concentration ([1]; 60 mg, time 5): 65.74 | Serum noribogaine concentration ([1]; 60 mg, time 6): 64.47 | Serum noribogaine concentration ([1]; 60 mg, time 7): 58.26 | Serum noribogaine concentration ([1]; 60 mg, time 8): 59.01 | Serum noribogaine concentration ([1]; 60 mg, time 12): 46.10 | Serum noribogaine concentration ([1]; 60 mg, time 16): 37.99 | Serum noribogaine concentration ([1]; 60 mg, time 24): 27.76 | Serum noribogaine concentration ([1]; 60 mg, time 36): 20.32 | Serum noribogaine concentration ([1]; 60 mg, time 48): 14.56 | Serum noribogaine concentration ([1]; 60 mg, time 60): 9.32 | Serum noribogaine concentration ([1]; 60 mg, time 72): 6.55 | Serum noribogaine concentration ([1]; 60 mg, time 96): 3.41 | Serum noribogaine concentration ([1]; 60 mg, time 120): 1.64 | Serum noribogaine concentration ([1]; 60 mg, time 144): 0.89 | Serum noribogaine concentration ([1]; 120 mg, time 0): 0 | Serum noribogaine concentration ([1]; 120 mg, time 0.5): 19.66 | Serum noribogaine concentration ([1]; 120 mg, time 1): 76.04 | Serum noribogaine concentration ([1]; 120 mg, time 1.5): 98.80 | Serum noribogaine concentration ([1]; 120 mg, time 2): 122.67 | Serum noribogaine concentration ([1]; 120 mg, time 2.5): 135.05 | Serum noribogaine concentration ([1]; 120 mg, time 3): 130.55 | Serum noribogaine concentration ([1]; 120 mg, time 3.5): 128.20 | Serum noribogaine concentration ([1]; 120 mg, time 4): 143.90 | Serum noribogaine concentration ([1]; 120 mg, time 5): 128.76 | Serum noribogaine concentration ([1]; 120 mg, time 6): 118.16 | Serum noribogaine concentration ([1]; 120 mg, time 7): 110.76 | Serum noribogaine concentration ([1]; 120 mg, time 8): 102.12 | Serum noribogaine concentration ([1]; 120 mg, time 12): 77.88 | Serum noribogaine concentration ([1]; 120 mg, time 16): 62.24 | Serum noribogaine concentration ([1]; 120 mg, time 24): 44.19 | Serum noribogaine concentration ([1]; 120 mg, time 36): 28.83 | Serum noribogaine concentration ([1]; 120 mg, time 48): 19.54 | Serum noribogaine concentration ([1]; 120 mg, time 60): 10.75 | Serum noribogaine concentration ([1]; 120 mg, time 72): 7.75 | Serum noribogaine concentration ([1]; 120 mg, time 96): 4.66 | Serum noribogaine concentration ([1]; 120 mg, time 120): 2.45 | Serum noribogaine concentration ([1]; 120 mg, time 144): 1.20 | Serum noribogaine concentration ([1]; 180 mg, time 0): 0 | Serum noribogaine concentration ([1]; 180 mg, time 0.5): 10.78 | Serum noribogaine concentration ([1]; 180 mg, time 1): 65.68 | Serum noribogaine concentration ([1]; 180 mg, time 1.5): 134.19 | Serum noribogaine concentration ([1]; 180 mg, time 2): 163.32 | Serum noribogaine concentration ([1]; 180 mg, time 2.5): 179.63 | Serum noribogaine concentration ([1]; 180 mg, time 3): 221.67 | Serum noribogaine concentration ([1]; 180 mg, time 3.5): 236.27 | Serum noribogaine concentration ([1]; 180 mg, time 4): 238.87 | Serum noribogaine concentration ([1]; 180 mg, time 5): 217.26 | Serum noribogaine concentration ([1]; 180 mg, time 6): 197.10 | Serum noribogaine concentration ([1]; 180 mg, time 7): 207.47 | Serum noribogaine concentration ([1]; 180 mg, time 8): 185.55 | Serum noribogaine concentration ([1]; 180 mg, time 12): 159.53 | Serum noribogaine concentration ([1]; 180 mg, time 16): 127.63 | Serum noribogaine concentration ([1]; 180 mg, time 24): 97.34 | Serum noribogaine concentration ([1]; 180 mg, time 36): 59.50 | Serum noribogaine concentration ([1]; 180 mg, time 48): 43.75 | Serum noribogaine concentration ([1]; 180 mg, time 60): 33.69 | Serum noribogaine concentration ([1]; 180 mg, time 72): 23.06 | Serum noribogaine concentration ([1]; 180 mg, time 96): 13.04 | Serum noribogaine concentration ([1]; 180 mg, time 120): 3.37 | Serum noribogaine concentration ([1]; 180 mg, time 144): 1.61 | Adverse event: Catheter Site Infection ([2]; 60 mg (N = 6)): 0 | Adverse event: Catheter Site Pain ([2]; 60 mg (N = 6)): 0 | Adverse event: Catheter Site Related Reaction ([2]; 60 mg (N = 6)): 0 | Adverse event: Cellulitis ([2]; 60 mg (N = 6)): 0 | Adverse event: Diarrhoea ([2]; 60 mg (N = 6)): 0 | Adverse event: Dry Mouth ([2]; 60 mg (N = 6)): 0 | Adverse event: Ear and Labyrinth Disorders ([2]; 60 mg (N = 6)): 0 | Adverse event: Epistaxis ([2]; 60 mg (N = 6)): 0 | Adverse event: Euphoric Mood ([2]; 60 mg (N = 6)): 0 | Adverse event: General Disorders and Administration Site Conditions ([2]; 60 mg (N = 6)): 0 | Adverse event: Hyperaesthesia ([2]; 60 mg (N = 6)): 0 | Adverse event: Infections and Infestations ([2]; 60 mg (N = 6)): 0 | Adverse event: Limb Discomfort ([2]; 60 mg (N = 6)): 0 | Adverse event: Malaise ([2]; 60 mg (N = 6)): 0 | Adverse event: Nausea ([2]; 60 mg (N = 6)): 0 | Adverse event: Oropharyngeal Pain ([2]; 60 mg (N = 6)): 0 | Adverse event: Pseudoparalysis ([2]; 60 mg (N = 6)): 0 | Adverse event: Respiratory, Thoracic and Mediastinal Disorders ([2]; 60 mg (N = 6)): 0 | Adverse event: Rhinorrhoea ([2]; 60 mg (N = 6)): 0 | Adverse event: Skin Discomfort ([2]; 60 mg (N = 6)): 0 | Adverse event: Skin Irritation ([2]; 60 mg (N = 6)): 0 | Adverse event: Skin and Subcutaneous Tissue Disorders ([2]; 60 mg (N = 6)): 0 | Adverse event: Somnoience ([2]; 60 mg (N = 6)): 0 | Adverse event: Tinnitus ([2]; 60 mg (N = 6)): 0 | Adverse event: Tremor ([2]; 60 mg (N = 6)): 0 | Adverse event: Urinary Tract Infection ([2]; 60 mg (N = 6)): 0 | Adverse event: Vomiting ([2]; 60 mg (N = 6)): 0 | Adverse event: Back Pain ([2]; 120 mg (N = 6)): 0 | Adverse event: Catheter Site Infection ([2]; 120 mg (N = 6)): 0 | Adverse event: Catheter Site Related Reaction ([2]; 120 mg (N = 6)): 0 | Adverse event: Depressed Mood ([2]; 120 mg (N = 6)): 0 | Adverse event: Dry Eye ([2]; 120 mg (N = 6)): 0 | Adverse event: Dyspepsia ([2]; 120 mg (N = 6)): 0 | Adverse event: Euphoric Mood ([2]; 120 mg (N = 6)): 0 | Adverse event: Limb Discomfort ([2]; 120 mg (N = 6)): 0 | Adverse event: Malaise ([2]; 120 mg (N = 6)): 0 | Adverse event: Musculoskeletal and Connective Tissue Disorders ([2]; 120 mg (N = 6)): 0 | Adverse event: Psychiatric Disorders ([2]; 120 mg (N = 6)): 0 | Adverse event: Somnoience ([2]; 120 mg (N = 6)): 0 | Adverse event: Urinary Tract Infection ([2]; 120 mg (N = 6)): 0 | Adverse event: Catheter Site Infection ([2]; 180 mg (N = 6)): 0 | Adverse event: Catheter Site Pain ([2]; 180 mg (N = 6)): 0 | Adverse event: Depressed Mood ([2]; 180 mg (N = 6)): 0 | Adverse event: Diarrhoea ([2]; 180 mg (N = 6)): 0 | Adverse event: Dry Eye ([2]; 180 mg (N = 6)): 0 | Adverse event: Dyspepsia ([2]; 180 mg (N = 6)): 0 | Adverse event: Ear and Labyrinth Disorders ([2]; 180 mg (N = 6)): 0 | Adverse event: Epistaxis ([2]; 180 mg (N = 6)): 0 | Adverse event: Euphoric Mood ([2]; 180 mg (N = 6)): 0 | Adverse event: Hyperaesthesia ([2]; 180 mg (N = 6)): 0 | Adverse event: Malaise ([2]; 180 mg (N = 6)): 0 | Adverse event: Oropharyngeal Pain ([2]; 180 mg (N = 6)): 0 | Adverse event: Pseudoparalysis ([2]; 180 mg (N = 6)): 0 | Adverse event: Psychiatric Disorders ([2]; 180 mg (N = 6)): 0 | Adverse event: Respiratory, Thoracic and Mediastinal Disorders ([2]; 180 mg (N = 6)): 0 | Adverse event: Rhinorrhoea ([2]; 180 mg (N = 6)): 0 | Adverse event: Skin Discomfort ([2]; 180 mg (N = 6)): 0 | Adverse event: Skin Irritation ([2]; 180 mg (N = 6)): 0 | Adverse event: Skin and Subcutaneous Tissue Disorders ([2]; 180 mg (N = 6)): 0 | Adverse event: Somnoience ([2]; 180 mg (N = 6)): 0 | Adverse event: Tinnitus ([2]; 180 mg (N = 6)): 0 | Adverse event: Tremor ([2]; 180 mg (N = 6)): 0 | hallucinatory effects ([2]; 60, 120 or 180 mg single dose): no hallucinatory effects | pupillary constriction (pupil diameter) [3]: no evidence of pupillary constriction
